Data from publication PMC5118709, “Identification of Polo-like kinase 1 interaction inhibitors using a novel cell-based assay” (Scientific Reports, 2016).
Values joined by “and” are separate entries in the source; they are usually repeats but may differ in a detail not shown here. Identical values can stand only once.

Target: Plk1-Map interaction (Homo sapiens, UniProt P53350)
Experiment: LUMIER co-immunoprecipitation assay Plk1-Map

Chain of Plk1-Map interaction (P53350 whole entry): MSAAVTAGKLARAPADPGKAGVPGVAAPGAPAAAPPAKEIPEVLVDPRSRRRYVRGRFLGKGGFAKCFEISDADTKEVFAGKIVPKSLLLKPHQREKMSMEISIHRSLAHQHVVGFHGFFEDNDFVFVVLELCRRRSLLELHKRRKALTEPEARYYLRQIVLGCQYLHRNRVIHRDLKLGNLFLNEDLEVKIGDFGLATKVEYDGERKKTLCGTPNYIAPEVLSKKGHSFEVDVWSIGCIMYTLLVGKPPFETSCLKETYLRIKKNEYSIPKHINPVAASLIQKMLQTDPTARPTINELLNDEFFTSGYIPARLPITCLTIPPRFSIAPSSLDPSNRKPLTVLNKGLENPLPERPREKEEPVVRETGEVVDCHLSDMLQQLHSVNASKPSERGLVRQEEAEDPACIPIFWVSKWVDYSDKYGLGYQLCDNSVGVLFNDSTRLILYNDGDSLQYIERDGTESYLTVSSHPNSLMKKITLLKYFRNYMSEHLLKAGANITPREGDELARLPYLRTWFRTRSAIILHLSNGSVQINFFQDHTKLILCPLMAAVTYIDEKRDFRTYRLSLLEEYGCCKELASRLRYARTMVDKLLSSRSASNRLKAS

- Average-Beads (mean luminescence) (10-25 μM, 2 h): 25,276
- Co-IP Values relative to top in plate column = 1 (10-25 μM, 2 h): 0.022
- Relative Luminescence Unit (mean divided by maximum mean of the compounds): 0.022
- Luminescence on beads, duplicate wells (raw data, 10-25 μM, 2 h): 21,904 and 28,648
Structure (SMILES): Cc1cc(C(F)(F)F)cc(S(=O)(=O)CCOC(=O)c2cccc(Cl)c2)n1 [Cpd 16, 2-((6-methyl-4-(trifluoromethyl)pyridin-2-yl)sulfonyl)ethyl 3-chlorobenzoate]
- effect on the Plk1-Map interaction in co-IP (10-25 μM, 2 h): disrupts the interaction with similar or better efficiency than TQ or PPG
